Among the data in DBAASP are MIC values, retold here.

Values after ≈ are worked out from the molar mass of the structure shown. Some results are limits rather than exact numbers.

What all share (experiment): ≥ marks a high value that may be exact or a test limit, other limits are often not marked, values filed in µg/mL are converted to µM
Assay [1] relates to Pseudomonas aeruginosa Ps4.
Assay [2] has as its system Pseudomonas aeruginosa H103.
The subject of assay [3] is Escherichia coli UB1005.
Assay [4] relates to Staphylococcus epidermidis.
The subject of assay [5] is Staphylococcus aureus ATCC 25923.
The test system of assay [6] is Candida albicans.
The subject of assay [7] is Salmonella enterica serovar Typhimurium.
The subject of assay [8] is Enterococcus faecalis ATCC 29212.
For assay [9], the system named is Pseudomonas aeruginosa.
Assay [10] has as its system Pseudomonas aeruginosa PAO1.
The subject of assay [11] is Acinetobacter baumannii.
Assay [12] deals with Pseudomonas aeruginosa CICC 21625.
For assay [13], the system named is Escherichia coli ATCC 25922.
Assay [14] has as its system Klebsiella pneumoniae.
Assay [15] has as its system Escherichia coli K88.
Assay [16] has as its system Salmonella enterica subsp. enterica serovar Typhimurium ATCC 14028.
The test system of assay [17] is Escherichia coli.
In assay [18] the test system is Escherichia coli K99.
In assay [19] the test system is Salmonella enterica subsp. enterica serovar Typhimurium C77-31.
Assay [20] concerns Pseudomonas aeruginosa ATCC 27853.
Assay [21] has as its system Salmonella enterica subsp. enterica serovar Pullorum C79-13.
For assay [22], the system named is Pseudomonas aeruginosa CICC 21630.
The test system of assay [23] is Escherichia coli NCTC 10418.
Assay [24] concerns Staphylococcus aureus NCTC 10788.
Assay [25] relates to Candida albicans NCPF 1467.

As a reminder, the MIC is the least concentration at which growth counts as inhibited. A lower MIC goes with a more susceptible organism.

The molecule `CC[C@H](C)[C@H](N)C(=O)N[C@@H](Cc1c[nH]c2ccccc12)C(=O)N[C@@H](CCC(N)=O)C(=O)N[C@@H](CCCN=C(N)N)C(=O)N[C@@H](CC(N)=O)C(=O)N[C@H](C(=O)N[C@@H](CCCN=C(N)N)C(=O)N[C@H](C(=O)N[C@@H](CCCN=C(N)N)C(=O)N[C@@H](CCCN=C(N)N)C(N)=O)[C@@H](C)CC)[C@@H](C)CC` [IWQRNIRIRR] registered a minimal inhibitory concentration (MIC) in [1] of at least 177 µM.
Take `CC[C@H](C)[C@H](NC(=O)[C@H](CCCN=C(N)N)NC(=O)[C@@H](NC(=O)[C@H](Cc1c[nH]c2ccccc12)NC(=O)[C@H](CCCN=C(N)N)NC(=O)[C@H](CCCN=C(N)N)NC(=O)[C@@H](N)CC(C)C)[C@@H](C)CC)C(=O)N[C@@H](CCCN=C(N)N)C(=O)N[C@@H](Cc1c[nH]c2ccccc12)C(=O)O` [LRRWIRIRW]: the minimum inhibitory concentration (MIC) in assay [2] stood at 21.4 µM (≈ 29 µg/mL); in [3], 0.7 µM (≈ 0.948 µg/mL); in assay [4] it was 0.883 µM (≈ 1.2 µg/mL); in [5], 1.3 µM (≈ 1.76 µg/mL); in [6], 10.7 µM (≈ 14.5 µg/mL); in assay [7], 5.4 µM (≈ 7.32 µg/mL). Besides, the MIC in [8] amounted to 5.4 µM (≈ 7.32 µg/mL).
For the molecule `CC[C@H](C)[C@H](NC(=O)[C@H](CCCCN)NC(=O)[C@H](CCCN=C(N)N)NC(=O)[C@H](Cc1c[nH]c2ccccc12)NC(=O)[C@H](Cc1c[nH]c2ccccc12)NC(=O)[C@H](Cc1c[nH]c2ccccc12)NC(=O)[C@H](CCCCN)NC(=O)[C@H](Cc1c[nH]c2ccccc12)NC(=O)[C@@H](N)CCCCN)C(=O)O` [KWKWWWRKI], the minimum inhibitory concentration (MIC) was 4.6 µM (≈ 6.52 µg/mL) in assay [2]; 4.6 µM (≈ 6.52 µg/mL) in [3]; 1.2 µM (≈ 1.7 µg/mL) in assay [4]; 1.2 µM (≈ 1.7 µg/mL) in assay [5]; 4.6 µM (≈ 6.52 µg/mL) in assay [6]; 4.6 µM (≈ 6.52 µg/mL) in assay [7]. In addition, in assay [8], the MIC amounted to 4.6 µM (≈ 6.52 µg/mL).
`NCCCC[C@H](NC(=O)[C@H](CCCN=C(N)N)NC(=O)[C@H](Cc1c[nH]c2ccccc12)NC(=O)[C@H](Cc1c[nH]c2ccccc12)NC(=O)[C@H](CCCN=C(N)N)NC(=O)[C@@H](N)CCCCN)C(=O)N[C@@H](Cc1c[nH]c2ccccc12)C(=O)N[C@@H](Cc1c[nH]c2ccccc12)C(=O)N[C@@H](CCCN=C(N)N)C(=O)O` [KRWWRKWWR]: the minimum inhibitory concentration (MIC) in assay [2] was at least 43.2 µM; in [3], 2.7 µM (≈ 4.02 µg/mL); in [4], 0.7 µM (≈ 1.04 µg/mL); in [5], 0.7 µM (≈ 1.04 µg/mL); in assay [6], 5.4 µM (≈ 8.03 µg/mL); in [7], 5.4 µM (≈ 8.03 µg/mL). Also, in assay [8], the MIC worked out at 10.8 µM (≈ 16.1 µg/mL).
As to `CC[C@H](C)[C@H](NC(=O)[C@H](CCCN=C(N)N)NC(=O)[C@H](CC(C)C)NC(=O)[C@H](CCCN=C(N)N)NC(=O)[C@@H](N)C(C)C)C(=O)N[C@@H](CCCN=C(N)N)C(=O)N[C@H](C(=O)N[C@@H](CCCN=C(N)N)C(=O)N[C@H](C(=O)N[C@H](C(=O)N[C@@H](CCCN=C(N)N)C(=O)N[C@@H](CCCCN)C(=O)O)[C@@H](C)CC)C(C)C)C(C)C` [VRLRIRVRVIRK], the MIC in assay [2] worked out at 2 µM (≈ 3.13 µg/mL); in assay [3], 2 µM (≈ 3.13 µg/mL); in assay [4], 1 µM (≈ 1.56 µg/mL); in [5], 1 µM (≈ 1.56 µg/mL); in assay [6] it was 8 µM (≈ 12.5 µg/mL); in assay [7], 2 µM (≈ 3.13 µg/mL). This molecule had an MIC in [8] of 4 µM (≈ 6.26 µg/mL).
Take `CC[C@H](C)[C@H](N)C(=O)N[C@@H](CCCCN)C(=O)N1CCC[C@H]1C(=O)N[C@H](C(=O)N[C@H](C(=O)N[C@@H](CCCCN)C(=O)N1CCC[C@H]1C(=O)N[C@H](C(=O)N[C@H](C(=O)N[C@@H](CCCCN)C(=O)N1CCC[C@H]1C(=O)N[C@H](C(=O)N[C@H](C(=O)N[C@@H](CCCCN)C(=O)N1CCC[C@H]1C(=O)N[C@H](C(=O)N[C@H](C(=O)N[C@@H](CCCCN)C(=O)N1CCC[C@H]1C(=O)N[C@H](C(=O)N[C@H](C(=O)N[C@@H](CCCCN)C(=O)N1CCC[C@H]1C(=O)N[C@H](C(=O)N[C@H](C(=O)N[C@@H](CCCCN)C(=O)N1CCC[C@H]1C(=O)N[C@H](C(N)=O)[C@@H](C)CC)[C@@H](C)CC)[C@@H](C)CC)[C@@H](C)CC)[C@@H](C)CC)[C@@H](C)CC)[C@@H](C)CC)[C@@H](C)CC)[C@@H](C)CC)[C@@H](C)CC)[C@@H](C)CC)[C@@H](C)CC)[C@@H](C)CC` [IKPIIKPIIKPIIKPIIKPIIKPIIKPI]: the MIC in assay [9] is above 64 µM; in assay [10], above 64 µM; in [11] it was 2 µM (≈ 6.36 µg/mL); in assay [12] it was at least 64 µM; in assay [3] it was 16 µM (≈ 50.9 µg/mL); in assay [13] it was 8 µM (≈ 25.4 µg/mL). Also, the minimum inhibitory concentration (MIC) in assay [14] was 16 µM (≈ 50.9 µg/mL); in assay [15] it was 2 µM (≈ 6.36 µg/mL); in [16] it was 64 µM (≈ 203 µg/mL); in assay [17], 16 µM (≈ 50.9 µg/mL); in assay [18], 2 µM (≈ 6.36 µg/mL); in [19] it was at least 64 µM. In addition, the values for the minimum inhibitory concentration (MIC) in [20], in assay [21] and in assay [22] were above 64 µM, at least 64 µM and at least 64 µM, respectively.
For the molecule `CC(C)C[C@H](NC(=O)[C@@H]1CCCN1C(=O)[C@H](CCCCN)NC(=O)[C@H](CC(C)C)NC(=O)[C@H](CC(C)C)NC(=O)[C@@H]1CCCN1C(=O)[C@H](CCCCN)NC(=O)[C@H](CC(C)C)NC(=O)[C@H](CC(C)C)NC(=O)[C@@H]1CCCN1C(=O)[C@H](CCCCN)NC(=O)[C@H](CC(C)C)NC(=O)[C@H](CC(C)C)NC(=O)[C@@H]1CCCN1C(=O)[C@H](CCCCN)NC(=O)[C@@H](N)CC(C)C)C(N)=O` [LKPLLKPLLKPLLKPL], the MIC in assay [9] is above 64 µM; in assay [10], above 64 µM; in [11], 4 µM (≈ 7.29 µg/mL); in assay [12], at least 64 µM; in assay [3] it was 16 µM (≈ 29.2 µg/mL); in assay [13], 16 µM (≈ 29.2 µg/mL). Moreover, the MIC in [14] was above 64 µM; in assay [15], 16 µM (≈ 29.2 µg/mL); in [16] it was above 64 µM; in assay [17] it was 32 µM (≈ 58.4 µg/mL); in assay [18] it was 16 µM (≈ 29.2 µg/mL); in assay [19], at least 64 µM. The values for the minimal inhibitory concentration (MIC) in assay [20], in assay [21] and in [22] were above 64 µM, at least 32 µM and at least 64 µM, respectively.
As to `CC[C@H](C)[C@H](NC(=O)[C@H](CCCN=C(N)N)NC(=O)[C@H](Cc1c[nH]c2ccccc12)NC(=O)CNC(=O)[C@H](CCCN=C(N)N)NC(=O)[C@H](Cc1c[nH]c2ccccc12)NC(=O)[C@@H](N)Cc1ccccc1)C(=O)N[C@@H](CCCN=C(N)N)C(=O)N[C@@H](CCCN=C(N)N)C(N)=O` [FWRGWRIRR], the MIC in assay [1] is at least 93.8 µM.
Turning to `CC(C)C[C@H](NC(=O)[C@@H]1CCCN1C(=O)[C@H](CCCN=C(N)N)NC(=O)[C@H](CC(C)C)NC(=O)[C@H](CC(C)C)NC(=O)[C@@H]1CCCN1C(=O)[C@H](CCCN=C(N)N)NC(=O)[C@H](CC(C)C)NC(=O)[C@H](CC(C)C)NC(=O)[C@@H]1CCCN1C(=O)[C@H](CCCN=C(N)N)NC(=O)[C@H](CC(C)C)NC(=O)[C@H](CC(C)C)NC(=O)[C@@H]1CCCN1C(=O)[C@H](CCCN=C(N)N)NC(=O)[C@@H](N)CC(C)C)C(N)=O` [LRPLLRPLLRPLLRPL], the MIC is above 64 µM in assay [9]; above 64 µM in assay [10]; 2 µM (≈ 3.87 µg/mL) in assay [11]; at least 64 µM in assay [12]; at least 32 µM in [3]; 8 µM (≈ 15.5 µg/mL) in [13]. Also, the minimal inhibitory concentration (MIC) was above 64 µM in [14]; 8 µM (≈ 15.5 µg/mL) in assay [15]; 32 µM (≈ 61.9 µg/mL) in [16]; 16 µM (≈ 31 µg/mL) in assay [17]; at least 32 µM in [18]; at least 64 µM in assay [19]. The MIC in assay [20] was above 64 µM; in assay [21], 8 µM (≈ 15.5 µg/mL); in [22] it was at least 64 µM.
For the molecule `CC[C@H](C)[C@H](NC(=O)[C@H](CCCCN)NC(=O)[C@H](CCCCN)NC(=O)[C@@H](NC(=O)[C@H](CC(C)C)NC(=O)[C@H](CCCCN)NC(=O)[C@@H]1CCCN1C(=O)[C@@H](NC(=O)[C@H](CC(C)C)NC(=O)[C@H](CO)NC(=O)[C@H](CC(C)C)NC(=O)[C@@H](N)Cc1ccccc1)[C@@H](C)CC)C(C)C)C(=O)N[C@H](C(=O)N[C@@H](CCCCN)C(=O)N[C@@H](C)C(=O)N[C@@H](Cc1ccccc1)C(=O)N[C@@H](CCCCN)C(=O)O)[C@@H](C)CC` [FLSLIPKLVKKIIKAFK], the minimum inhibitory concentration (MIC) in [23] was determined as 5 µM (≈ 9.93 µg/mL); in assay [24], 2.5 µM (≈ 4.97 µg/mL); in assay [25] it was 2.5 µM (≈ 4.97 µg/mL).
